Columns and labels:
Format in all cases: cell-based, human
[1] = tested on: DLD1 cell line containing wild-type ATR (ATR cells); test: Colony forming-efficiency assay, ATR wild-type cells; conditions: 11 days; for sensitivity of colony formation to t-BOOH after H2S inhibitor pretreatment: 2 h 1 mM β-cyano-l-alanine, then 15 min 50, 100 or 200 μM t-BOOH
Experimental: (§1) Cells: The human colon cancer cell line DLD1 cell line containing wild-type ATR (ATR cells) or the ATR-Seckel knock-in hypomorphic mutation (ATR-H cells) were a kind gift from Dr. Fred Bunz of the Department of Radiation Oncology and Molecular Radiation Sciences, The Johns Hopkins University School of Medicine. The cells were cultured in DMEM with 5% FBS, 1% penicillin/streptomycin.
(§2) Colony forming-efficiency assay: Colony forming-efficiency (CEFA) experiments were performed. In brief, exponentially growing cells were plated for 12 h at 2000 cells/100 mm tissue culture dish in 10 ml appropriate media. The cells were pretreated for 2 h with either an H2S inhibitor (β-cyano-1-alanine, 1 mM) or donor (diallyl trisulfide, 20 uM), washed 3× with 1× phospate buffered saline, the media replaced, and the cells were immediately treated with for 15 min with 50, 100, and 200 μM t-butyl hydroperoxide (t-BOOH). Following treatment, the cells were washed 3× with phosphate-buffered saline, the media replaced and the cells cultured for 11 days. The resulting colonies were fixed and stained by water: methanol addition (1:1) containing crystal violet (1 g/l). “Colonies” consisted of cell clusters containing greater than 50 cells when counted by dissecting microscopy.

[2] = tested on: CHK1 serine-345 phosphorylation in ATR cells; test: Western blot of CHK1 serine 345 phosphorylation, ATR cells
Experimental: as §1
(§3) Western blotting: To prepare whole cell lysates from ATR and ATR-H cells, the cells were grown in 6-well plates, the medium was removed, and 300 μl of SDS sample buffer (62.5 mM Tris-HCl (pH 6.8), 2% w/v SDS, 10% glycerol, 50 mM dithiothreitol, 0.1% w/v bromphenol blue) was added to each well. Following lysis in SDS sample buffer, lysates were harvested with cell scrapers and collected in Eppendorf tubes. The lysates were boiled, centrifuged, and frozen at −20° C. until gel electrophoresis was performed. The protein concentrations were measured by Bio-rad DC protein assay. Twenty […] of total protein supernatant extract was mixed with 2×SDS loading buffer according to protein concentration. Lysates separated by SDS-PAGE were transferred to polyvinylidene difluoride membranes, and membranes were blocked in 5% nonfat dry milk before the addition of primary antibodies. Densitometry was performed with ImageJ software version 1.45 s. All western blots were performed at least in triplicate.

[3] = tested on: DLD1 cell line containing the ATR-Seckel knock-in hypomorphic mutation (ATR-H cells); test: Colony forming-efficiency assay, ATR-H cells
Experimental: as §1, §2

[4] = tested on: ATR-pS435 in ATR cells; test: Western blot of ATR serine 435 phosphorylation, ATR cells
Experimental: as §1, §3

[5] = tested on: ATR-pS435 in ATR-H cells; test: Western blot of ATR serine 435 phosphorylation, ATR-H cells
Experimental: as §1, §3

[6] = tested on: ATR cells; test: Free cellular H2S measurement by HPLC after MBB derivatization, ATR cells
Experimental: as §1
(§4) H2S measurements: Bioavailable sulfide levels were measured as previously reported. Levels of free sulfide (H2S) in ATR and ATR-H cells were measured by high performance liquid chromatography (HPLC) after derivatization with excess MBB as stable products sulfide-dibimane (SDB). Briefly, ATR and ATR-H cells were homogenized in Tris.HCl buffer [100 mM Tris.HCl (pH 9.5) and 0.1 mM diethylenetriaminepentaacetic acid (DTPA)]. Cell lysates were derivatized with MBB and then measured by Shimadzu Prominence 20 A equipment with RF-10AXL (excitation wavelength: […] and emission wavelength: […]) and an Eclipse XDB-C18 column (4.6×50 mm, 5 μm). Typical retention times of SDB were 16.5 min. H2S levels were calculated according to the standard SDB.

[7] = tested on: CHK1 serine-345 phosphorylation in ATR-H cells; test: Western blot of CHK1 serine 345 phosphorylation, ATR-H cells; conditions: 2 h 1 mM β-cyano-l-alanine with or without 15 min 10 μM t-BOOH
Experimental: as §1, §3

[8] = tested on: ATR cells; test: dsDNA breaks in metaphase chromosomal preparations, ATR cells; conditions: 2 h 1 mM β-cyano-l-alanine followed by 10 μM t-BOOH
Experimental: as §1
Chromosomal preparation and analysis: One 100-mm tissue culture plate/treatment of logarithmically growing ATR and ATR-H cells at 50% confluence were treated with or without, 1 mM H2S inhibitor β-cyano-l-alanine for two hours, followed by a 15-minute treatment with 10 μM t-BOOH. Following this treatment, the cells were washed 3× with phosphate-buffered saline, the media replaced, and the cells cultured for 1 h. Colcemid (100 ng/ml) was then added for 4 h and the cells harvested by washing 2× in 1×PBS, followed by trypsinization and transference to a 15 ml tube. Two-ml of DMEM with 5% FBS was added/tube and the cells were pelleted 5 min at 500×g. The cells were re-suspended in 5 ml […] and incubated 15 min at 37° C. About 200 μl of fresh methanol: glacial acetic acid at 3:1 (Carnoy's fixative) was added, the cells gently vortexed, and pelleted for 5 min at 500×g. The supernatant was removed and 5 ml of Carnoy's fixative added with gentle vortexing. […]

[9] = tested on: ATR-H cells; test: Free cellular H2S measurement by HPLC after MBB derivatization, ATR-H cells
Experimental: as §1, §4

[10] = tested on: ATR-H cells; test: dsDNA breaks in metaphase chromosomal preparations, ATR-H cells
Experimental: as §1
Chromosomal preparation and analysis: One 100-mm tissue culture plate/treatment of logarithmically growing ATR and ATR-H cells at 50% confluence were treated with or without, 1 mM H2S inhibitor β-cyano-l-alanine for two hours, followed by a 15-minute treatment with 10 μM t-BOOH. Following this treatment, the cells were washed 3× with phosphate-buffered saline, the media replaced, and the cells cultured for 1 h. Colcemid (100 ng/ml) was then added for 4 h and the cells harvested by washing 2× in 1×PBS, followed by trypsinization and transference to a 15 ml tube. Two-ml of DMEM with 5% FBS was added/tube and the cells were pelleted 5 min at 500×g. The cells were re-suspended in 5 ml […] and incubated 15 min at 37° C. About 200 μl of fresh methanol: glacial acetic acid at 3:1 (Carnoy's fixative) was added, the cells gently vortexed, and pelleted for 5 min at 500×g. The supernatant was removed and 5 ml of Carnoy's fixative added with gentle vortexing. The cells were pelleted for 5 min at 500×g, the supernatant removed, and 5 ml of Carnoy's fixative was added with gentle vortexing. Chromosomal preparations were made by pelleting the preparations for 5 min at 500×g, removing the supernatant, dropping on slides, drying for 30 min at 90° C., Giemsa staining, washing, and cover-slipping. Each data point represents 5000 individual chromosomal observations preformed under oil immersion microscopy done in triplicate.

[11] = ATR wild-type cells, 2 h 1 mM β-cyano-l-alanine

C=CCSSSCC=C [diallyl trisulfide]
colony formation, H2S donor pretreatment ([1]; 2 h 20 μM diallyl trisulfide): significantly decreased
CHK1 serine-345 phosphorylation after t-BOOH, H2S donor pretreatment ([2]; ATR wild-type cells, H2S donor pretreatment, then t-BOOH): did not significantly alter
colony formation, H2S donor pretreatment ([3]; 2 h 20 μM diallyl trisulfide, 11 days): significantly decreased
ATR-pS435 level ([4]; ATR wild-type cells, 2 h 20 μM diallyl trisulfide): inhibited this phosphorylation
ATR-pS435 level ([5]; 2 h 20 μM diallyl trisulfide): not affected by any treatment
cellular free H2S concentration ([6]; 2 h 20 μM diallyl trisulfide): suppressed

N#CC[C@H](N)C(=O)O [β-cyano-l-alanine]
CHK1 serine-345 phosphorylation level changes [7]: failed to show significant CHK1 serine-345 phosphorylation level changes
sensitivity of colony formation to t-BOOH after H2S inhibitor pretreatment [1]: slightly increased the sensitivity of the ATR cells
sensitivity of colony formation to t-BOOH after H2S inhibitor pretreatment ([1]; listed as H2S inhibitor): only significantly potentiated t-BOOH toxicity at the two higher doses
dsDNA breaks [8]: significantly increased dsDNA breaks
cellular free H2S concentration ([9]; 2 h 1 mM β-cyano-l-alanine): significantly lowered
CHK1 serine-345 phosphorylation after t-BOOH, with versus without H2S inhibitor pretreatment ([2]; ATR cells, 2 h 1 mM β-cyano-l-alanine, then 15 min 10 μM t-BOOH, harvest at 45 min): significantly increased
colony formation, H2S inhibitor pretreatment with 200 μM t-BOOH versus 200 μM t-BOOH alone ([3]; 200 μM t-BOOH): not significantly different
colony formation, H2S inhibitor by itself ([3]; 2 h 1 mM β-cyano-l-alanine, no t-BOOH, 11 days): suppressed ATR-H cell colony formation
sensitivity of colony formation to t-BOOH after H2S inhibitor pretreatment ([3]; 2 h 1 mM β-cyano-l-alanine, then 15 min 50, 100 or 200 μM t-BOOH, 11 days, compared to ATR wild-type cells): significantly more sensitive to the same t-BOOH exposures
ATR-pS435 level [4, 11]: increased ATR-pS435
increase of ATR-pS435 compared to untreated cell phosphorylation levels [4, 11]: ~50%
ATR-pS435 level ([5]; 2 h 1 mM β-cyano-l-alanine): not affected by any treatment
dsDNA breaks ([10]; 1 mM β-cyano-l-alanine alone): significantly increased dsDNA breaks
dsDNA breaks ([10]; 2 h 1 mM β-cyano-l-alanine followed by 10 μM t-BOOH): significantly increased dsDNA breaks
cellular free H2S concentration ([6]; 2 h 1 mM β-cyano-l-alanine): significantly lowered

Nc1nc(N)c(N=O)c(OCC2CCCCC2)n1 [NU6027]
cellular free H2S concentration ([9]; 2 h 12 μM NU6027): but not the ATR-H cells
cellular free H2S concentration ([6]; 2 h 12 μM NU6027): significantly decreased

CC(C)(C)OO [t-BOOH, t-butyl hydroperoxide]
colony formation suppression by t-BOOH ([1]; 15 min 50, 100 or 200 μM t-BOOH): colony formation suppression was t-BOOH dose-dependent
colony formation suppression by t-BOOH ([3]; 15 min 50, 100 or 200 μM t-BOOH, 11 days): colony formation suppression was t-BOOH dose-dependent
induction of ATR-pS435 levels ([4]; ATR wild type cells, 100 μM t-BOOH 15 min, then 45 min in media): ~50%
ATR-pS435 level ([5]; 100 μM t-BOOH 15 min, then 45 min in media): not increased
dsDNA break formation ([10]; 15 min 10 μM t-BOOH alone): significantly increased dsDNA break formation

Reference: patent US11510925B2, “Methods and therapeutics to regulate hydrogen sulfide bioavailability” (Board of Supervisors of Louisiana State University and …, priority 2018, dated 2022)
